Measured values from patent publication US20250114430A1, “MODIFIED PEPTIDOMIMETICS AND METHODS OF USE” (The University of North Carolina at Chapel Hill, priority 2021, published 2025).
Entries after “also recorded” stand apart in the source; their conditions may differ. No end group written: not given here.

Assays:
[1] = molecular target: Orai1 (Homo sapiens, UniProt Q96D31); assay: TIRF microscopy of Orai1 in the plasma membrane; type: cell-based; design: Endogenous Orai1/store operated Ca^2+ influx have been extensively studied in HEK293T cells; endogenous in cells; host or cells: HEK293T; conditions: Orai1-YFP, 3 h
Sequence of Orai1 (Q96D31 whole entry): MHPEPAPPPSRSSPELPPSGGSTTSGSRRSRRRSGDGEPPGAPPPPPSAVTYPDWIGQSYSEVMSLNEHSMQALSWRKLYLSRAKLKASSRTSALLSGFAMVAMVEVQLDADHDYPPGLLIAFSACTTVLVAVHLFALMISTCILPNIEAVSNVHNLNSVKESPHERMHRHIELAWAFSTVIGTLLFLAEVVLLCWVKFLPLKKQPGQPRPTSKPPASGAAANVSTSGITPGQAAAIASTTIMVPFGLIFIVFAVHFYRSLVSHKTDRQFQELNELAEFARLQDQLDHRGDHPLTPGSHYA
Text: To determine whether ELD607 internalized Orai1, total internal reflection fluorescence (TIRF) microscopy was used to measure Orai1 in the plasma membrane. […] However, ELD607 reduced Orai1 plasma membrane expression by ˜50% (FIG. 26, panels A-B). […] We expressed NFAT-GFP in HEK293T cells and evaluated the ability of ELD607 to attenuate NFAT relocation to the nucleus after stimulation of SOCE by confocal microscopy. ELD607 reduced the percentage of NFAT in the nucleus by greater than 50% (FIG. 26, panels C-D).

[2] = test system: mouse hepatitis virus (MHV-A59; a murine coronavirus); assay: Murine coronavirus MHV-A59 infection; type: in vivo
Procedure: Mice were dosed intranasally with 10^6 PFU MHIV-A59 followed by vehicle (saline) or 1.0 mg/kg of ELD607 per mouse 4 d p.i. BAL and lungs were collected 6 d p.i.
ELD607 normalized leukocyte composition and viral loads in the airways after murine coronavirus infection. Coronaviruses are emerging pathogens with severe outcomes in the human population. Mice were infected with 10^6 PFU mouse hepatitis virus (MHV-A59; a murine coronavirus) intranasally. The mice were then dosed with 1.0 mg/kg ELD607 or vehicle intranasally 4 days p.i. and then 2 days after dosing with ELD607 (6 days p.i.), mice were sacrificed to collect BAL and lung homogenates.

[3] = test system: P. aeruginosa, Staphylococcus aureus, and Haemophilus influenzae; assay: Murine bacterial infection models (three organisms); type: in vivo, mice
Procedure: Mice were dosed intranasally with P. aeruginosa (PA), S. aureus (Sa), or H. influenzae followed by vehicle (saline) or 0.5 mg/kg of ELD100 or ELD607 per mouse. FIG. 19 panels A, F, and K show total cell counts; FIG. 19 panels B, G, and L show BAL macrophages; FIG. 19 panels C, H, and M show BAL neutrophils; FIG. 19 panels D, I, and N show whole lung CFUs; and FIG. 19 panels E, J, and O show spleen CFUs. Top row, P. aeruginosa, middle row, S. aureus, bottom row, H. influenzae. * p<0.05 different from naïve mice; #p<0.05 different from infected mice.
ELD607 reduces neutrophilia and increases lung bacterial clearance in multiple murine bacterial infection models. Neutrophilia is a common feature of both Gram-positive and Gram-negative lung infections. Accordingly, further studies were performed with P. aeruginosa, Staphylococcus aureus, and Haemophilus influenzae (FIG. 19 panels B, C, G, H, L, and M). After infection with all three organisms, significant levels of bacteria were detected in the lung and spleen, and the infections increased total BAL cell numbers due to neutrophilia, while relative BAL macrophage numbers declined (FIG. 19 panels A-O). […] Moreover, 24 h after infection, about 10^9 CFUs could be detected in murine whole lung homogenate.

[4] = test system: HEK293 T cells; assay: Cytotoxicity in HEK293 T cells (calcein); type: cell-based; conditions: 100 μM, 24 h
Procedure: FIG. 28 panels C and D show cell viability per arbitrary units (left) and transepithelial resistance (right) of vehicle vs. ELD607 before and after treatment.
ELD607 is non-toxic in vitro and in vivo. To investigate potential cytotoxic effects of ELD607, […] were exposed to 100 μM ELD607 for 24 h. Cytotoxicity was assessed by exposing cells to calcein to label live cells and fluorescence read by multi-plate reader. […] Primary human bronchial epithelial cultures were exposed to 1 mM ELD607 or vehicle control (saline) for 24 h. Cytotoxicity was assessed by confocal microscopy using calcein and propidium iodide to label live and dead cells respectively. […] Transepithelial resistance was also measured before and after treatment as a measure of epithelial integrity.

[5] = test system: bleomycin-induced lung injury; assay: Bleomycin-induced lung fibrosis in mice; type: in vivo; design: dose or concentration left out as unconfirmed
Procedure: Mice were exposed to 4 doses of bleomycin as described from days 1-37, then fibrosis was allowed to form from days 38-60. The mice were then dosed daily with inhaled […] (1 mg/kg) from days 61-82. Mice were sacrificed on Day 83 and histology was performed.
ELD607 reverses fibrosis in mice. Bleomycin-exposed mice are a well-established model to study IPF. Based on ATS guidelines, mice were dosed with […] bleomycin per dose 4 times over 37 days to induce fibrosis. From day 61, mice were then treated intranasally with […] ELD607 daily for 20 days (FIG. 40 panel A). Lungs were then collected and prepped for H&E staining and fibrosis was measured using the Ashcroft scaling system.

[6] = test system: E. coli LPS; assay: E. coli LPS sepsis model, intravenous ELD607; type: in vivo, mice; conditions: LPS intraperitoneally
Procedure: We injected mice intraperitoneally with E. coli LPS, followed by 0.5 mg/kg ELD607 injected intravenously 1 h later.

[7] = test system: SCNN1B mice; assay: SCNN1B (βENaC) overexpressing mice, chronic pulmonary inflammation; type: in vivo
Procedure: SCNN1B and littermate control mice were exposed to ELD607 or vehicle intranasally on a daily basis for 11 days, starting on day 1 post-partum.
FIG. 32 panel A: Mice were infected with P. aeruginosa for 24 h; then, 0.5 mg/kg ELD607 was added intratracheally. BAL was collected 24 h later to determine cell counts. SCNN1B mice were given 0.5 mg/kg ELD607 daily for 11 days before sacrifice and BAL collection. FIG. 32 panel B: Survival of bENaC mice.
Additional models were tested such as the house dust mite (HDM) allergic lung inflammation model (FIG. 20); and SCNN1B-overexpression, wherein mice develop mucus obstruction and spontaneous pulmonary inflammation (FIG. 21).
Repeated ELD607 exposure reduces chronic inflammation in βENaC overexpressing mice. We added ELD607 to βENaC overexpressing mice, which spontaneously develop chronic infection and neutrophilia and have increased mortality (FIG. 32, panel A).

[8] = 1.0 mg/kg intranasal 4 days p.i., read 6 days p.i.
[9] = 0.5 mg/kg intranasal, 24 h after infection

## VHDIVNMLIRG [ELD607, VHDIVNMLIRG]
[1]
  reduction of Orai1 plasma membrane expression: ~50%
[2]; [8]
  lung lymphocyte levels (B cells and T cells): significantly reduced lung lymphocyte levels
  lung monocyte and macrophage levels: normalized lung monocyte and macrophage levels
[2]; one dose 1.0 mg/kg
  viral loads in the lungs and BAL: significantly reduced
[3]; [9]
  lung macrophage levels: significantly normalized lung macrophage levels
  neutrophilia: reduced neutrophilia
[3]; FIG. 19 panels D and I
  reduction in lung bacteria: 3-5 log10
[3]; FIG. 19 panels E and J
  sepsis (spleen CFUs): significantly reduced sepsis
[3]; all three infections
  overall outcomes: significantly improved outcomes
[4]
  cell viability (calcein): not significantly different to vehicle control
[5]; 25 intranasally daily for 20 days from day 61
  lung damage (Ashcroft): significantly less lung damage than vehicle controls
[5]; lower dose of 19, different time course
  acute and chronic bleomycin-induced lung injury: reduces acute and chronic bleomycin-induced lung injury
[6]; 0.5 mg/kg intravenously
  blood macrophages: significantly increased blood macrophages
  blood neutrophilia: significantly reduced blood neutrophilia
[6]; 0.5 mg/kg intravenously 1 h later
  weight loss: significant prevented weight loss
[7]; daily intranasal 0.5 mg/kg
  survival of βENaC overexpressing mice: increased survival
[7]; daily intranasal 0.5 mg/kg, 11 days
  neutrophils in SCNN1B (βENaC) mice: significantly reduced lung neutrophilia; also recorded: significantly decreased BAL neutrophil levels
[7]; daily intranasal, 11 days
  BAL cells in WT littermate mice: no effect on WT mice
